Laboratory results reported in patent publication US20120010075A1 (priority 2009, published 2012).
Like-named read-outs stand apart in the source and are kept apart here.

Assays:
Phytophthora infestans = type: in vivo, Phytophthora infestans on tomato; conditions: applied 24 h before inoculation, assessed 7 days after inoculation
[1] = tested on: Leptosphaeria nodorum (LEPTNO); experiment: In vitro fungitoxicity of hydrazones with and without copper towards Leptosphaeria nodorum (Example 26); type: cell-based; conditions: 72 h at 25° C.; for inhibition of growth at 0.05 µg/mL: Parastagonospora nodorum, 72 h, copper-minus medium, read-out: LEPTNO % Inhn. Minus Copper Observed
[2] = tested on: Leptosphaeria nodorum (LEPTNO); experiment: Isolated metal-hydrazone complexes versus parent hydrazones, in vitro, Leptosphaeria nodorum (Example 31, Table 7); type: cell-based; conditions: Parastagonospora nodorum; 0.1 μg/mL; copper-minus medium; 72 h
Phytophthora capsici = experiment: In vitro fungitoxicity of hydrazones with and without copper towards Phytophthora capsici (Example 28, Table 3); type: cell-based; conditions: 0.050 μg/mL, 48 h; for % Inhn Plus copper Observed: copper-plus AS medium (CuCl2, 50 μM); for inhibition of growth at 0.05 µg/mL: Phytophthora capsici, copper-minus AS medium, read-out: % Inhn Minus copper Observed
Ustilago maydis = experiment: In vitro fungitoxicity of hydrazones with and without copper towards Ustilago maydis (Example 29, Table 4); type: cell-based; conditions: 1 μg/mL, 48 h; for % Inhn. Plus copper Observed: copper-plus medium (CuCl2, 10 μM); for inhibition of growth at 1 µg/mL: Mycosarcoma maydis, copper-minus medium, read-out: % Inhn. Minus copper Observed
[3] = tested on: Septoria tritici isolate USA-184; experiment: In vitro fungitoxicity of hydrazones with and without copper towards Septoria tritici (Example 30, Table 5); type: cell-based; conditions: Zymoseptoria tritici, 0.05 μg/mL
[4] = hydrazone 50 ppm + 50 μM CuCl2.2H2O, tomato
[5] = compound 0.05 μg/mL, copper-plus medium (CuCl2.2H2O)
[6] = hydrazone 50 ppm with 50 μM CuCl2.2H2O, tomato late blight
[7] = test compound Concn. 0.05 μg/mL
[8] = copper-plus medium (CuCl2 10 μM), test compound Concn. 0.05 μg/mL
[9] = Colby formula, CuCl2, read-out: % Inhibition Plus copper Predicted
[10] = copper-minus medium, 90 h, read-out: % Inhibition Minus copper Observed
[11] = copper-plus medium CuCl2, 90 h, read-out: % Inhibition Plus copper Observed

| SMILES | TLB % Control (Phytophthora infestans; [4]) | inhibition of growth at 0.05 µg/mL ([1]; compound 0.05 μg/mL) | LEPTNO % Inhn. Plus Copper Observed [1, 5] | inhibition at 0.1 µg/mL [2] | melting point | TLB % Control (Phytophthora infestans; [6]) | inhibition of growth at 0.05 µg/mL [1, 7] | LEPTNO % Inhn. Plus Copper Observed [1, 8] | % Inhn Plus copper Observed (Phytophthora capsici) | inhibition of growth at 0.05 µg/mL (Phytophthora capsici) | % Inhn. Plus copper Observed (Ustilago maydis) | inhibition of growth at 1 µg/mL (Ustilago maydis) | inhibition at 0.05 µg/mL [3, 9] | inhibition at 0.05 µg/mL [3, 10] | inhibition at 0.05 µg/mL [3, 11] |
| --- | --- | --- | --- | --- | --- | --- | --- | --- | --- | --- | --- | --- | --- | --- | --- |
| O=C(N/N=C/c1ccc(Cl)c(Cl)c1O)c1ccccc1 [Example 238] | 92.5% | 0.5% | 97.6% | 20% | 249 to 252 °C | – | – | – | – | – | – | – | – | – | – |
| O=C(N/N=C/c1ccc(Cl)c(Cl)c1O)c1ccc(Cl)cc1 [Example 359] | – | – | – | 24.1% | 260 to 262 °C | 92.0% | 41.4% | 97.3% | – | – | – | – | – | – | – |
| O=C(N/N=C/c1cc(Cl)cc(Br)c1O)c1ccccc1 [Example 151] | 83.0% | 11.8% | 97.6% | 30.9% | – | – | – | – | – | – | – | – | – | – | – |
| O=C(N/N=C/c1cc(Cl)ccc1O)c1ccc(Cl)cc1 [Example 172] | 27.1% | 13.2% | 97.9% | 28.7% | – | – | – | – | – | – | – | – | – | – | – |
| C/C(=N\NC(=O)c1ccccc1C)c1cc(Cl)cc(Cl)c1O [Example 137] | 74.0% | 4.5% | 98.5% | 27.2% | 226 to 230 °C | – | – | – | – | – | – | – | – | – | – |
| COc1cccc(/C(C)=N/NC(=O)c2ccccc2)c1O [Example 299] | – | – | – | 18.6% | 146 to 148 °C | 74.0% | 0% | 97.9% | – | – | – | – | – | – | – |
| O=C(N/N=C/c1ccc(Cl)cc1O)c1ccc(Cl)cc1 [Example 392] | – | – | – | 22.8% | – | 46.0% | 15.8% | 97.9% | – | – | – | – | – | – | – |
| O=C(N/N=C/c1c(O)cccc1Cl)c1ccc(Cl)cc1 [Example 403] | – | – | – | 12.1% | 273 to 277 °C | 97.0% | 0% | 97.3% | – | – | – | – | – | – | – |
| O=C(N/N=C/c1ccc(Cl)cc1O)c1ccccc1 [Example 233] | 88.1% | 5.6% | 98.1% | 8.4% | – | – | – | – | – | – | – | – | – | – | – |
| O=C(N/N=C/c1cc(Cl)cc(Br)c1O)c1ccc(Cl)cc1 [Example 159] | 91.9% | 11.4% | 98.5% | 27.4% | – | – | – | – | – | – | – | – | – | – | – |
| C/C(=N\NC(=O)c1ccccc1Cl)c1cc(Cl)cc(Cl)c1O [Example 67] | 75.0% | 2.6% | 91.8% | 4.2% | – | – | – | – | – | – | – | – | – | – | – |
| O=C(N/N=C/c1cc(Cl)cc(Br)c1O)c1ccccc1O [Example 195] | 89.5% | 19.2% | 97.9% | 21.7% | – | – | – | – | – | – | – | – | – | – | – |
| O=C(N/N=C/c1cc(C(F)(F)F)cc(Cl)c1O)c1ccccc1 [Example 275] | 79.7% | 0% | 98.4% | – | 216 to 222 °C | – | – | – | 91.2% | 0% | 92.2% | 0% | 16.2% | 16.2% | 93.5% |
| O=C(N/N=C/c1c(Cl)ccc(Cl)c1O)c1cccc(Cl)c1 [Example 369] | – | – | – | – | 232 to 234 °C | 98.0% | 7% | 95.5% | 44.5% | 0% | 93.6% | 3.1% | 9.3% | 9.3% | 93.2% |
| O=C(N/N=C/c1cc(Cl)cc(Cl)c1O)c1ccc(Cl)cc1 [Example 68] | 75.9% | 15.8% | 97.0% | 7.1% | – | – | – | – | – | – | – | – | – | – | – |
